Laboratory results as given in patent US12509444B2, “Compounds and methods for CD73 modulation and indications therefor” (Plexxikon Inc., priority 2019, dated 2025).

target: T1, Human CD73 (amino acid residues 27-549) (Homo sapiens, UniProt P21589); assay: CD73 enzymatic assay (luciferase-based indirect assay, CellTiter-Glo); type: biochemical; conditions: 0.4 nM CD73, 150 μM AMP, 1 hour at room temperature
T1 construct: Human CD73 (amino acid residues 27-549); His tag (N); made in house; host or cells: E. coli
T1 sequence (P21589 27-549): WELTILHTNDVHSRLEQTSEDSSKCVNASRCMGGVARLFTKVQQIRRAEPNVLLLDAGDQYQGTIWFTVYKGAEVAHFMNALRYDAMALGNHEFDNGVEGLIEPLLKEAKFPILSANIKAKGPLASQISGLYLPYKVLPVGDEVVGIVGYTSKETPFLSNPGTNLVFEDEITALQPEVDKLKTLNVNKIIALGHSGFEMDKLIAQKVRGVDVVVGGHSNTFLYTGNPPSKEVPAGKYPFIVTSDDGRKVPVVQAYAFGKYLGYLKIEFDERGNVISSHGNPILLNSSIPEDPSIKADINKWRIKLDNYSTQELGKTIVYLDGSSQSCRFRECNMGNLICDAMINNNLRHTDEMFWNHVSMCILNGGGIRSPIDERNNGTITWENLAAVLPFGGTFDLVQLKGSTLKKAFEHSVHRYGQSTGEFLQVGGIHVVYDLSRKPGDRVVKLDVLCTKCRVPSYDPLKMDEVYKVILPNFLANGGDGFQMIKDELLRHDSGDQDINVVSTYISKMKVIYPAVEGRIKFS
Protocol: CD73 enzymatic activity was measured in a luciferase-based indirect assay using CellTiter-Glo® system from Promega. The luciferase reaction in the presence of ATP is inhibited by AMP, a primary substrate of CD73. Addition of CD73 enzyme to the reaction converts AMP to adenosine, and release the inhibition, producing a luminescent signal. Inhibition of CD73 leads to the decrease of this luminescent signal.
Human CD73 (amino acid residues 27-549) with N-Terminal His tag was purified in E. coli. All the assay components were prepared in 50 mM HEPEs buffer (pH 7.4) with 0.01% Tween® 20. The CD73 enzymatic assay was performed using 0.4 nM CD73 and 150 μM AMP. 9.5 μL of CD73 protein and 9.5 μL of AMP were added to the wells of a 384 well plate containing 1 μL of various concentrations of test compound or DMSO vehicle and incubated for 1 hour at room temperature. 16 wells containing CD73, AMP and 5% DMSO served as high control. 16 wells containing AMP and 5% DMSO served as low control. Enzymatic reaction was stopped and AMP level was measured indirectly by adding 5 μL of CellTiter-Glo® 2.0 reagent and 5 μL of ATP with a final concentration of 1 μM. Following incubation of the plate at room temperature for 30 minutes, luminescent signal was read on a Tecan plate reader. The percentage inhibition at individual concentrations relative to high and low controls was calculated. The data were analyzed by using nonlinear regression to generate IC50 values.

Row | Compound | IC50
1 | CN(C)c1ccc(NC(=O)N[C@@H]2CCN(c3cn[nH]c(=O)c3Cl)C2)cc1 [P-0045, (R)-1-(1-(5-chloro-6-oxo-1,6-dihydropyridazin-4-yl)pyrrolidin-3-yl)-3-(4-(dimethylamino)phenyl)urea] | 10 to 100 µM
2 | O=C(N[C@@H]1CCN(c2cn[nH]c(=O)c2Cl)C1)OCc1ccccc1 [P-0048, benzyl (R)-(1-(5-chloro-6-oxo-1,6-dihydropyridazin-4-yl)pyrrolidin-3-yl)carbamate] | 10 to 100 µM
3 | COc1ccc(OC(=O)N[C@@H]2CCN(c3cn[nH]c(=O)c3Cl)C2)cc1 [P-0049, 4-methoxyphenyl (R)-(1-(5-chloro-6-oxo-1,6-dihydropyridazin-4-yl)pyrrolidin-3-yl)carbamate] | 0.001 to 10 µM
4 | CN(C(=O)OC(C)(C)C)C1CCN(c2cn[nH]c(=O)c2Cl)C1 (stereo not drawn) [P-0066, tert-butyl (1-(5-chloro-6-oxo-1,6-dihydropyridazin-4-yl)pyrrolidin-3-yl)(methyl)carbamate] | 10 to 100 µM
5 | CN(C(=O)NC1CCCC1)C1CCN(c2cn[nH]c(=O)c2Cl)C1 (stereo not drawn) [P-0067, 1-(1-(5-chloro-6-oxo-1,6-dihydropyridazin-4-yl)pyrrolidin-3-yl)-3-cyclopentyl-1-methylurea] | 10 to 100 µM
6 | CC(C)(C)OC(=O)NC1(C(=O)O)CCN(c2cn[nH]c(=O)c2Cl)C1 (stereo not drawn) [P-0070, 3-((tert-butoxycarbonyl)amino)-1-(5-chloro-6-oxo-1,6-dihydropyridazin-4-yl)pyrrolidine-3-carboxylic acid] | 100 to 1000 µM
7 | N#CC1(NC(=O)NC2CCCC2)CCN(c2cn[nH]c(=O)c2Cl)C1 (stereo not drawn) [P-0073, 1-(1-(5-chloro-6-oxo-1,6-dihydropyridazin-4-yl)-3-cyanopyrrolidin-3-yl)-3-cyclopentylurea] | 10 to 100 µM
8 | NC(=O)C1(NC(=O)OC2CCCCC2)CCN(c2cn[nH]c(=O)c2Cl)C1 (stereo not drawn) [P-0075, cyclohexyl (3-carbamoyl-1-(5-chloro-6-oxo-1,6-dihydropyridazin-4-yl)pyrrolidin-3-yl)carbamate] | 10 to 100 µM
9 | CN(C(=O)NC1CCN(c2cn[nH]c(=O)c2Cl)C1)C1CCCCC1 (stereo not drawn) [P-0078, 3-(1-(5-chloro-6-oxo-1,6-dihydropyridazin-4-yl)pyrrolidin-3-yl)-1-cyclohexyl-1-methylurea] | 10 to 100 µM
10 | Cc1n[nH]c(=O)c(Cl)c1N1CC[C@@H](NC(=O)NC2CCCCC2)C1 [P-0080, (R)-1-(1-(5-chloro-3-methyl-6-oxo-1,6-dihydropyridazin-4-yl)pyrrolidin-3-yl)-3-cyclohexylurea] | 10 to 100 µM
11 | Cc1c(N2CC[C@@H](NC(=O)OC3CCCCC3)C2)cn[nH]c1=O [P-0081, cyclohexyl (R)-(1-(5-methyl-6-oxo-1,6-dihydropyridazin-4-yl)pyrrolidin-3-yl)carbamate] | 0.001 to 10 µM
12 | Cc1n[nH]c(=O)c(Cl)c1N1CC[C@@H](NC(=O)OC2CCCC2)C1 [P-0082, cyclopentyl (R)-(1-(5-chloro-3-methyl-6-oxo-1,6-dihydropyridazin-4-yl)pyrrolidin-3-yl)carbamate] | 10 to 100 µM
13 | O=C(NCC1CC1)N[C@@H]1CCN(c2cn[nH]c(=O)c2Cl)C1 [P-0083, (R)-1-(1-(5-chloro-6-oxo-1,6-dihydropyridazin-4-yl)pyrrolidin-3-yl)-3-(cyclopropylmethyl)urea] | 10 to 100 µM
14 | O=C(NC1CC1c1ccccc1)N[C@@H]1CCN(c2cn[nH]c(=O)c2Cl)C1 (stereo partly drawn) [P-0084, 1-((R)-1-(5-chloro-6-oxo-1,6-dihydropyridazin-4-yl)pyrrolidin-3-yl)-3-(2-phenylcyclopropyl)urea] | 0.001 to 10 µM
15 | O=C(NC1C2CC3CC(C2)CC1C3)N[C@@H]1CCN(c2cn[nH]c(=O)c2Cl)C1 (stereo partly drawn) [P-0087, (R)-1-(adamantan-2-yl)-3-(1-(5-chloro-6-oxo-1,6-dihydropyridazin-4-yl)pyrrolidin-3-yl)urea] | 0.001 to 10 µM
16 | COC(=O)C12CCC(NC(=O)O[C@@H]3CCN(c4cn[nH]c(=O)c4Cl)C3)(CC1)CC2 [P-0120, methyl (R)-4-((((1-(5-chloro-6-oxo-1,6-dihydropyridazin-4-yl)pyrrolidin-3-yl)oxy)carbonyl)amino)bicyclo [2.2.2]octane-1-carboxylate] | 0.001 to 10 µM

The remaining lines, values ahead:

Row | IC50 | Compound
17 | 0.001 to 10 µM | O=C(Nc1ccc(C(F)(F)F)cc1)N[C@@H]1CCN(c2cn[nH]c(=O)c2Cl)C1 [P-0043, (R)-1-(1-(5-chloro-6-oxo-1,6-dihydropyridazin-4-yl)pyrrolidin-3-yl)-3-(4-(trifluoromethyl)phenyl)urea]
18 | 0.001 to 10 µM | O=C(Nc1cccc(OC(F)F)c1)N[C@@H]1CCN(c2cn[nH]c(=O)c2Cl)C1 [P-0044, (R)-1-(1-(5-chloro-6-oxo-1,6-dihydropyridazin-4-yl)pyrrolidin-3-yl)-3-(3-(difluoromethoxy)phenyl)urea]
19 | 0.001 to 10 µM | CC(C)COC(=O)N[C@@H]1CCN(c2cn[nH]c(=O)c2Cl)C1 [P-0050, isobutyl (R)-(1-(5-chloro-6-oxo-1,6-dihydropyridazin-4-yl)pyrrolidin-3-yl)carbamate]
20 | 0.001 to 10 µM | O=C(NC1CC1)N[C@@H]1CCN(c2cn[nH]c(=O)c2Cl)C1 [P-0053, (R)-1-(1-(5-chloro-6-oxo-1,6-dihydropyridazin-4-yl)pyrrolidin-3-yl)-3-cyclopropylurea]
21 | 0.001 to 10 µM | O=C(N[C@@H]1CCN(c2cn[nH]c(=O)c2Cl)C1)OC1CCOC1 (stereo partly drawn) [P-0055, tetrahydrofuran-3-yl ((R)-1-(5-chloro-6-oxo-1,6-dihydropyridazin-4-yl)pyrrolidin-3-yl)carbamate]
22 | 0.001 to 10 µM | C[C@H]1CN(c2cn[nH]c(=O)c2Cl)C[C@@H]1NC(=O)OC(C)(C)C [P-0060, tert-butyl ((3R,4S)-1-(5-chloro-6-oxo-1,6-dihydropyridazin-4-yl)-4-methylpyrrolidin-3-yl)carbamate]
23 | 0.001 to 10 µM | C[C@H]1CN(c2cn[nH]c(=O)c2Cl)C[C@@H]1NC(=O)NC1CCCC1 [P-0061, 1-((3R,4S)-1-(5-chloro-6-oxo-1,6-dihydropyridazin-4-yl)-4-methylpyrrolidin-3-yl)-3-cyclopentylurea]
24 | 0.001 to 10 µM | CN(C(=O)NC1CCCCC1)C1CCN(c2cn[nH]c(=O)c2Cl)C1 (stereo not drawn) [P-0069, 1-(1-(5-chloro-6-oxo-1,6-dihydropyridazin-4-yl)pyrrolidin-3-yl)-3-cyclohexyl-1-methylurea]
25 | 0.001 to 10 µM | CC(=O)N1CCC(NC(=O)N[C@@H]2CCN(c3cn[nH]c(=O)c3Cl)C2)CC1 [P-0071, (R)-1-(1-acetylpiperidin-4-yl)-3-(1-(5-chloro-6-oxo-1,6-dihydropyridazin-4-yl)pyrrolidin-3-yl)urea]
26 | 0.001 to 10 µM | CCS(=O)(=O)N1CCC(NC(=O)N[C@@H]2CCN(c3cn[nH]c(=O)c3Cl)C2)CC1 [P-0072, (R)-1-(1-(5-chloro-6-oxo-1,6-dihydropyridazin-4-yl)pyrrolidin-3-yl)-3-(1-(ethylsulfonyl)piperidin-4-yl)urea]
27 | 0.001 to 10 µM | CN(C(=O)NC1CCN(c2cn[nH]c(=O)c2Cl)C1)C1CCCC1 (stereo not drawn) [P-0079, 3-(1-(5-chloro-6-oxo-1,6-dihydropyridazin-4-yl)pyrrolidin-3-yl)-1-cyclopentyl-1-methylurea]
